Laboratory results as given in publication PMC10746543, “Design principles for cyclin K molecular glue degraders” (Nature Chemical Biology, 2023).
“And” between values parts separate entries of the source, which are not always exact repeats. Identical values can stand only once.

How the values were obtained:
[1] = tested on: cyclin K–eGFP degradation reporter; test: Cyclin K reporter stability analysis (dual-color cyclin K–eGFP reporter); assay type: cell-based, human; settings: for reporter assay signal (normalized): replicates
How it was run: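 First, reporter-bearing HEK293T–Cas9 cells are plated at 1 × 10^6 ml^−1. Next, drug or vehicle is added for 5 h. Finally, geometric-mean eGFP and mCherry signals of round, mCherry-positive cells are measured cytometrically, and their ratio is referenced to the DMSO average.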

[2] = molecular target: T1, CDK13 (Homo sapiens, UniProt Q14004+Q16531); test: Label-free quantitative mass spectrometry in MDA-MB-231 cells, CDK13; assay type: cell-based
T1 construct: endogenous in cells; host or cells: MDA-MB-231
T1 sequence (Q14004 whole entry): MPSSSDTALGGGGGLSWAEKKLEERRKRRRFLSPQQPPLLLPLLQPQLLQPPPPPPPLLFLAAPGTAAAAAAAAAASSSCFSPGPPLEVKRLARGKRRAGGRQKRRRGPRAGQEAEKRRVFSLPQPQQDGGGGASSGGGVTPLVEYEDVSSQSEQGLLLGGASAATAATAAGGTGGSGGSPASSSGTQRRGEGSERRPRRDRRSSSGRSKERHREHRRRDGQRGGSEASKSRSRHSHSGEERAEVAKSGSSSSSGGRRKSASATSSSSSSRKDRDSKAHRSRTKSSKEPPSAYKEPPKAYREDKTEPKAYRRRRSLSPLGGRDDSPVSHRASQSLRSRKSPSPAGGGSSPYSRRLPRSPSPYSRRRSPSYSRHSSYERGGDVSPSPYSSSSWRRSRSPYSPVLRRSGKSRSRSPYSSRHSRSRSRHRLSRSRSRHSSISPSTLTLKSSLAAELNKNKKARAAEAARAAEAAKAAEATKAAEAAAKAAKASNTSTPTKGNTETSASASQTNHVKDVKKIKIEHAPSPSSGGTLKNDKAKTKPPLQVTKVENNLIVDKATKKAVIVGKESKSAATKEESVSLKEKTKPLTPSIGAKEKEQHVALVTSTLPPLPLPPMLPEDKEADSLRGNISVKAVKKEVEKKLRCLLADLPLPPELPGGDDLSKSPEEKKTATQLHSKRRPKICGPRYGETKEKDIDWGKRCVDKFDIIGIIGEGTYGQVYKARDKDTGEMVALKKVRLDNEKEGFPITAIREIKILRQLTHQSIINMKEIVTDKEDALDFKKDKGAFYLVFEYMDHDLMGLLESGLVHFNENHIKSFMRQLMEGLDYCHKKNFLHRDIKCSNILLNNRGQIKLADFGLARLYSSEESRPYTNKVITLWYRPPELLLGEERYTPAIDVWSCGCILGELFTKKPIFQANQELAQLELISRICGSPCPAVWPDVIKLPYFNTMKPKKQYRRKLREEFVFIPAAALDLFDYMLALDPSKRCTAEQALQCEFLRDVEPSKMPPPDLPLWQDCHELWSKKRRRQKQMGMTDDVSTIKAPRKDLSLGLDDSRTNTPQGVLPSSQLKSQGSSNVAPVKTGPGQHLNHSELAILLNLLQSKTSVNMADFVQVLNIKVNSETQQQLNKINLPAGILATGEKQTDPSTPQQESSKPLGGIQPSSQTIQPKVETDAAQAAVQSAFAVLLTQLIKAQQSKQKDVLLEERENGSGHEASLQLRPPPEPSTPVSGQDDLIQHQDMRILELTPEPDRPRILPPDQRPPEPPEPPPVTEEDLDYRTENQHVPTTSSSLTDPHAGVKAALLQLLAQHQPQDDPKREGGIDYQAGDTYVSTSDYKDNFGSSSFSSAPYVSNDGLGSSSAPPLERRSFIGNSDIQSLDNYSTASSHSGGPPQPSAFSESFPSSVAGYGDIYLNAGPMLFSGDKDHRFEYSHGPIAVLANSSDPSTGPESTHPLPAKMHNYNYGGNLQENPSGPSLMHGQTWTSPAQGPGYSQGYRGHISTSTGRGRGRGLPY
T1 sequence (O75909 whole entry partner): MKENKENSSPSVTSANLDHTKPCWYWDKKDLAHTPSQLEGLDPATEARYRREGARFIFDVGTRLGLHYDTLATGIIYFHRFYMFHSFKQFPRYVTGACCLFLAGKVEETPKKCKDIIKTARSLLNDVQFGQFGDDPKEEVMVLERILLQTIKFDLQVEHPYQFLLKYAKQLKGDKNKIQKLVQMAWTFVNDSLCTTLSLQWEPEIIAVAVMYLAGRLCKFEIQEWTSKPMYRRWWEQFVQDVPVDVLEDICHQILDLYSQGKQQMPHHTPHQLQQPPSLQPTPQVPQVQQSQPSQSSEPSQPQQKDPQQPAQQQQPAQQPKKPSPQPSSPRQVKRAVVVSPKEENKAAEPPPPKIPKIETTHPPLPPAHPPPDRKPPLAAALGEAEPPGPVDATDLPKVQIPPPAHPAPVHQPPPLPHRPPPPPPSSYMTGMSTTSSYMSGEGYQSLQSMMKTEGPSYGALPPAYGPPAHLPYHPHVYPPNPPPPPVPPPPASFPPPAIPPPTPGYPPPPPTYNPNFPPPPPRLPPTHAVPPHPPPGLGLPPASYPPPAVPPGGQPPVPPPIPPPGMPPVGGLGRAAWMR
T1 sequence (Q16531 2-1140 limits assumed): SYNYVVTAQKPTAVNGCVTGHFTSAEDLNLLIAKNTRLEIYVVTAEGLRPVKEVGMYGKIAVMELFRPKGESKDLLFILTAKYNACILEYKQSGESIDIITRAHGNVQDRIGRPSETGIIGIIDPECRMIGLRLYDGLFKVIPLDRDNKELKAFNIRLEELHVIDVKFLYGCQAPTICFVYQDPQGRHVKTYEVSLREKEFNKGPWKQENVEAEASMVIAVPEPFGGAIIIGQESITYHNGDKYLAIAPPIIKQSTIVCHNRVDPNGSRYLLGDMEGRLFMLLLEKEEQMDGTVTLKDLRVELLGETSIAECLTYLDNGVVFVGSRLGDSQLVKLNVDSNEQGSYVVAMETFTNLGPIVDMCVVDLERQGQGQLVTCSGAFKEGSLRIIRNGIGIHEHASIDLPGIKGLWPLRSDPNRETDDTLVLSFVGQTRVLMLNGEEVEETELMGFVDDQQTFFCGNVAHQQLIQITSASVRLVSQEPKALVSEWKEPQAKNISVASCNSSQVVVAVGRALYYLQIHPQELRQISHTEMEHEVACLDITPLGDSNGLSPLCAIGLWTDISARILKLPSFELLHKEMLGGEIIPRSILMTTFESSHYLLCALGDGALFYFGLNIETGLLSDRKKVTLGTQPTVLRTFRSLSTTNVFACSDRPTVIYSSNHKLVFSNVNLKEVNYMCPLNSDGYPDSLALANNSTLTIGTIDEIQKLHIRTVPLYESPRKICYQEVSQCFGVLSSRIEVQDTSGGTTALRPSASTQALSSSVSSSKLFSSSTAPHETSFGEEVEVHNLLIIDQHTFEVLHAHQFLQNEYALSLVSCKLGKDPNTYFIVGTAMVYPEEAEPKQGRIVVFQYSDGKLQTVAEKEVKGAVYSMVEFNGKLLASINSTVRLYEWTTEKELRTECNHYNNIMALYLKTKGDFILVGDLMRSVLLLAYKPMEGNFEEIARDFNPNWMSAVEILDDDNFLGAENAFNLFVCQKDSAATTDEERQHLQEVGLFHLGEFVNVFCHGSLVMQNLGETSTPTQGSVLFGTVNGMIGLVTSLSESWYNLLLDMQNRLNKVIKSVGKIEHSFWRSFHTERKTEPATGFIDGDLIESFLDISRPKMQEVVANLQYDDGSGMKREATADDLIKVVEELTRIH
Procedure: (§1) MDA-MB-231 cells were treated with DMSO or a cyclin K degrader compound at 1 µM for 5 h. Cells were collected by centrifugation and washed with phosphate-buffered saline before snap freezing in liquid nitrogen. Cells were lysed by addition of lysis buffer (8 M urea, 50 mM NaCl, 50 mM 4-(2-hydroxyethyl)-1-piperazineethanesulfonic acid (EPPS) pH 8.5, and protease and phosphatase inhibitors) and homogenization by bead beating (BioSpec) for three repeats of 30 s at 2,400 rpm. Bradford assay was used to determine the final protein concentration in the clarified cell lysate. Then 50 µg of protein for each sample was reduced, alkylated and precipitated using methanol/chloroform as previously described, and the resulting washed precipitated protein was allowed to air dry. Precipitated protein was resuspended in 4 M urea, 50 mM HEPES pH 7.4, followed by dilution to 1 M urea with the addition of 200 mM EPPS, pH 8. Proteins were first digested with LysC (1:50; enzyme:protein) for 12 h at room temperature. The LysC digestion was diluted to 0.5 M urea with 200 mM EPPS pH 8 followed by digestion with trypsin (1:50; enzyme:protein) for 6 h at 37 °C. Sample digests were acidified with formic acid to a pH of 2–3 before desalting using C18 solid phase extraction plates (SOLA, Thermo Fisher Scientific). Desalted peptides were dried in a vacuum-centrifuged and reconstituted in 0.1% formic acid for liquid chromatography–mass spectrometry analysis.
(§2) Data were collected using a TimsTOF Pro2 (Bruker Daltonics) coupled to a nanoElute LC pump (Bruker Daltonics) via a CaptiveSpray nano-electrospray source. Peptides were separated on a reversed-phase C18 column (25 cm × 75 µm inner diameter, […], IonOpticks) containing an integrated captive spray emitter. Peptides were separated using a 50 min gradient of 2–30% buffer B (acetonitrile in 0.1% formic acid) with a flow rate of 250 nl min^−1 and column temperature maintained at 50 °C.
(§3) Data-dependent acquisition (DDA) was performed in Parallel Accumulation-Serial Fragmentation (PASEF) mode to determine effective ion mobility windows for downstream diaPASEF data collection. The ddaPASEF parameters included: 100% duty cycle using accumulation and ramp times of 50 ms each, one Trapped Ion Mobility Spectrometry(TIMS)-MS scan and ten PASEF ramps per acquisition cycle. The TIMS-MS survey scan was acquired between 100 m/z and 1,700 m/z and 1/K0 of 0.7–1.3 V s cm^−2. Precursors with one to five charges were selected, and those that reached an intensity threshold of 20,000 arbitrary units were actively excluded for 0.4 min. The quadrupole isolation width was set to 2 m/z for m/z < 700 and 3 m/z for m/z > 800, with the m/z between 700 m/z and 800 m/z being interpolated linearly. […] To perform diaPASEF, the precursor distribution in the DDA m/z-ion mobility plane was used to design an acquisition scheme for data-independent acquisition (DIA) data collection that included two windows in each 50 ms diaPASEF scan. Data were acquired using 16 of these 25 Da precursor double window scans (creating 32 windows) that covered the diagonal scan line for doubly and triply charged precursors, with singly charged precursors able to be excluded by their position in the m/z-ion mobility plane. These precursor isolation windows were defined between 400 m/z and 1,200 m/z and 1/K0 of 0.7–1.3 V s cm^−2.
(§4) DirectDIA mode includes first extracting the DIA data into a collection of MS2 spectra which are searched using Spectronaut’s Pulsar search engine. The search results are then used to generate a spectral library which is then employed for the targeted analysis of the DIA data. MS/MS spectra were searched against a Swissprot human database (January 2021). Database search criteria largely followed the default settings for directDIA including: tryptic with two missed cleavages, fixed carbomidomethylation of cysteine, and variable oxidation of methionine and acetylation of protein N-termini and precursor Q-value (FDR) cut-off of 0.01. […]

[3] = molecular target: T2, CDK2–cyclin A (Homo sapiens, UniProt P24941); test: Lanthascreen kinase binding assay, CDK2
T2 construct: purchased Thermo Fisher
Procedure: Lanthascreen experiments were performed using commercially available reagents (Thermo Fisher) and according to the manufacturer’s instructions.

[4] = tested on: cyclin K; test: Label-free quantitative mass spectrometry in MDA-MB-231 cells, cyclin K; assay type: cell-based, human
Procedure: as §1, §2, §3, §4

[5] = label-free quantitative MS, replicate values
[6] = normalised to DMSO = 1, replicate values

CC(C)c1nn(-c2c(Cl)cccc2Cl)c2nc(Cc3ccc(OCCO)cc3)[nH]c(=O)c12 [compound 21195]
reporter assay signal (normalized) ([1]; 2 nM): 0.9561 and 0.9287
reporter assay signal (normalized) ([1]; 3 nM): 0.9797 and 0.9734
reporter assay signal (normalized) ([1]; 4.5 nM): 0.9145 and 0.9397
reporter assay signal (normalized) ([1]; 7.68 nM): 0.9019 and 0.9312
reporter assay signal (normalized) ([1]; 22.8 nM): 0.769 and 0.8233
reporter assay signal (normalized) ([1]; 34.2 nM): 0.7674 and 0.787
reporter assay signal (normalized) ([1]; 51.3 nM): 0.6849 and 0.771
reporter assay signal (normalized) ([1]; 77 nM): 0.6566 and 0.7136
reporter assay signal (normalized) ([1]; 260 nM): 0.6047 and 0.6647
reporter assay signal (normalized) ([1]; 390 nM): 0.6094 and 0.6714
reporter assay signal (normalized) ([1]; 585 nM): 0.6094 and 0.6655
reporter assay signal (normalized) ([1]; 877 nM): 0.6086 and 0.6352
reporter assay signal (normalized) ([1]; 1970 nM): 0.5992 and 0.6495
reporter assay signal (normalized) ([1]; 2960 nM): 0.552 and 0.6731
reporter assay signal (normalized) ([1]; 4440 nM): 0.5937 and 0.62
reporter assay signal (normalized) ([1]; 6670 nM): 0.5457 and 0.6014
reporter assay signal (normalized) ([1]; 10000 nM): 0.5701 and 0.6031
cyclin K reporter degradation, result in words ([1]; HEK293T): potent degraders
DC50 ([1]; source data sheet correlations, read-out: DC50): 26 nM
CDK13 peptide count [2, 5]: 262.248 and 170.145
CDK13 peptide count (DMSO-normalised) [2, 6]: 0.3901 and 0.2615
Lanthascreen signal, sheet CDK2 ([3]; Compound 0.038147 nM, raw replicates, experiment r48-r58): 0.01114 and 0.01116
Lanthascreen signal, sheet CDK2 ([3]; Compound 0.038147 nM, raw replicates, experiment r72-r82): 0.02274 and 0.02249 and 0.02111
Lanthascreen signal, sheet CDK2 ([3]; Compound 0.152588 nM, raw replicates, experiment r48-r58): 0.01418 and 0.01279
Lanthascreen signal, sheet CDK2 ([3]; Compound 0.152588 nM, raw replicates, experiment r72-r82): 0.0215 and 0.0211 and 0.01988
Lanthascreen signal, sheet CDK2 ([3]; Compound 0.610352 nM, raw replicates, experiment r48-r58): 0.01088 and 0.01046
Lanthascreen signal, sheet CDK2 ([3]; Compound 0.610352 nM, raw replicates, experiment r72-r82): 0.01525 and 0.01498 and 0.01532
Lanthascreen signal, sheet CDK2 ([3]; Compound 1.02544 nM, raw replicates, experiment r1-r11): 0.008805 and 0.007055
Lanthascreen signal, sheet CDK2 ([3]; Compound 3.15521 nM, raw replicates, experiment r1-r11): 0.006794 and 0.006701
Lanthascreen signal, sheet CDK2 ([3]; Compound 4.57247 nM, experiment r25-r34): 0.009774
Lanthascreen signal, sheet CDK2 ([3]; Compound 9.46563 nM, raw replicates, experiment r1-r11): 0.005367 and 0.004658
Lanthascreen signal, sheet CDK2 ([3]; Compound 9.76563 nM, raw replicates, experiment r48-r58): 0.004922 and 0.004545
Lanthascreen signal, sheet CDK2 ([3]; Compound 9.76563 nM, raw replicates, experiment r72-r82): 0.008551 and 0.007922 and 0.008628
Lanthascreen signal, sheet CDK2 ([3]; Compound 13.7174 nM, experiment r25-r34): 0.006843
Lanthascreen signal, sheet CDK2 ([3]; Compound 31.5521 nM, raw replicates, experiment r1-r11): 0.003961 and 0.003619
Lanthascreen signal, sheet CDK2 ([3]; Compound 39.0625 nM, raw replicates, experiment r48-r58): 0.004317 and 0.004069
Lanthascreen signal, sheet CDK2 ([3]; Compound 39.0625 nM, raw replicates, experiment r72-r82): 0.008233 and 0.00742 and 0.007049
Lanthascreen signal, sheet CDK2 ([3]; Compound 41.1523 nM, experiment r25-r34): 0.005858
Lanthascreen signal, sheet CDK2 ([3]; Compound 99.3891 nM, raw replicates, experiment r1-r11): 0.003218 and 0.002962
Lanthascreen signal, sheet CDK2 ([3]; Compound 123.457 nM, experiment r25-r34): 0.005407
Lanthascreen signal, sheet CDK2 ([3]; Compound 156.25 nM, raw replicates, experiment r48-r58): 0.004055 and 0.004446
Lanthascreen signal, sheet CDK2 ([3]; Compound 156.25 nM, raw replicates, experiment r72-r82): 0.007121 and 0.006977 and 0.007061
Lanthascreen signal, sheet CDK2 ([3]; Compound 315.521 nM, raw replicates, experiment r1-r11): 0.003513 and 0.004201
Lanthascreen signal, sheet CDK2 ([3]; Compound 370.37 nM, experiment r25-r34): 0.005303
Lanthascreen signal, sheet CDK2 ([3]; Compound 625 nM, raw replicates, experiment r48-r58): 0.004058 and 0.004497
Lanthascreen signal, sheet CDK2 ([3]; Compound 625 nM, raw replicates, experiment r72-r82): 0.007299 and 0.007212 and 0.007465
Lanthascreen signal, sheet CDK2 ([3]; Compound 2500 nM, raw replicates, experiment r48-r58): 0.004147 and 0.004489
Lanthascreen signal, sheet CDK2 ([3]; Compound 2500 nM, raw replicates, experiment r72-r82): 0.007107 and 0.006983 and 0.006617
Lanthascreen signal, sheet CDK2 ([3]; Compound 3155.21 nM, raw replicates, experiment r1-r11): 0.004846 and 0.003852
Lanthascreen signal, sheet CDK2 ([3]; Compound 3333.33 nM, experiment r25-r34): 0.004706
Lanthascreen signal, sheet CDK2 ([3]; Compound 10000 nM, experiment r25-r34): 0.005121
Lanthascreen signal, sheet CDK2 ([3]; Compound 10000 nM, raw replicates, experiment r48-r58): 0.003844 and 0.004325
Lanthascreen signal, sheet CDK2 ([3]; Compound 10000 nM, raw replicates, experiment r72-r82): 0.007331 and 0.007604 and 0.008348
Lanthascreen signal, sheet CDK2 ([3]; Compound 10002 nM, raw replicates, experiment r1-r11): 0.002963 and 0.004615
IC50 ([3]; Supplementary Table 2, read-out: Lanthascreen IC50 [nM] CDK2): 3 nM
cyclin K depletion, result in words ([4]; MDA-MB-231 cells, 1 µM, 5 h): more effective at depleting cyclin K than CR8
CCNK peptide count ([4]; individual replicates, sheet EDF7): 55.265 and 55.9786
CCNK peptide count [4, 5]: 55.265 and 55.9786
CCNK peptide count (DMSO-normalised) [4, 6]: 0.03019 and 0.03114
average CCNK peptide count ([4]; sheet EDF7): 55.6218
